Results reported in publication PMC12298629, “New Derivatives of Caracasine Acid with Anti-Leukemic Activity and Limited Effectiveness in Spheroid Cultures” (Pharmaceuticals, 2025).

What was measured:
U2OS = assay: Cytotoxic MTS assay, U2OS 2D; assay type: cell-based; conditions: U2OS, human tumors 2D, 72 h, median of five assays
Excerpt: (§1) The cancer cell lines used in the cytotoxic assays were acquired from the American Tissue Culture Collection (ATCC) (Manassas, VA, USA) and maintained as described previously. The MRC-5 and BJ human fibroblasts were used as non-tumoral control cells. The (MRC-5 LD and BJ LD) are also human fibroblast cell lines resistant to doxorubicin. […] The Raji and Ramos cell lines correspond to B-cell leukemia. Other cells, such as U2OS, represent a child osteosarcoma, while HCT116 is a colorectal tumor cell line. (HCT116p53^−/−, Horizon Discovery Ltd., Cambridge, UK) is a similar cell line with its p53 gene knocked down, serving as a model of human cancer frequently associated with a poor prognosis. The cells were maintained in Nunc/corning 80 cm^2 plastic tissue culture flasks and cultured in a cell culture medium according to ATCC or Horizon recommendations (McCoy, DMEM/RPMI 1640 with 5 g/L glucose, 2 mM glutamine, 100 U/mL penicillin, […] streptomycin, 10% fetal calf serum, and NaHCO3). The compounds were freshly dissolved in DMSO. The final concentration of DMSO was 0.01% in the cell culture.
(§2) The in vitro cytotoxicity of compounds (1–7) was assessed using the standard 3-(4,5-dimethyl-thiazol-2yl)-5-(3-carboxymethoxyphenyl)-2-(sulfophenyl)-2H-tetrazolium (MTS). The assay was performed at the Institute of Molecular and Translational Medicine using a robotic platform (High-ResBiosolutions, Beverly, MA, USA). Cell suspensions were prepared and diluted according to the specific cell type and the expected target cell density (25,000–35,000 cells/mL, based on cell growth characteristics). An automatic pipettor (30 μL) was used to add cells into 384-well microtiter plates. All tested compounds were dissolved in 100% DMSO, and four-fold dilutions of the intended test concentrations were added in 0.15 μL aliquots at time zero to the microtiter plate wells by the echo acoustic non-contact liquid handler Echo550 (Labcyte, San Jose, CA, USA). The assays were accomplished in technical duplicates and at least three biological replicates. The cells were incubated with the tested compound for 72 h at 37 °C in a 5% CO2 atmosphere with 100% humidity. At the end of the incubation period, cells were assayed using the MTS test. Aliquots (5 μL) of the MTS stock solution were pipetted into each well and incubated for 1–4 h. After this incubation period, the optical density (OD) was measured at 490 nm using an Envision reader (PerkinElmer, Waltham, MA, USA). Tumor cell survival (TCS) was calculated using the following equation: TCS = (OD drug-exposed well/mean OD control wells) × 100%. The IC50 value, representing the concentration of the compound lethal to 50% of the tumor cells, was calculated from the corresponding dose-response curves using Dotmatics software (Updated version 2022, London, UK). After three days of incubation on the cancer cell lines and normal fibroblasts, the […] (IC50) were obtained. Five assays were performed for each cell line. The standard error of the assays was lower than 10%, as assessed by the triplicate assays.

K562 = assay: Cytotoxic MTS assay, K562; assay type: cell-based; conditions: K562, human leukemia cell line, 72 h, median of five assays
Excerpt: as §1, §2

BJ = assay: Cytotoxic MTS assay, BJ fibroblasts; assay type: cell-based; conditions: BJ, human fibroblasts, 72 h, median of five assays
Excerpt: as §1, §2

[1] = tested on: different cell lines (CCRF-CEM, K562, Raji, Ramos, HCT116, HCT116 p53KO, A549, U2OS); assay: Peroxide formation assessment using DCFDA; assay type: cell-based, human; conditions: compounds at 5-fold the IC50; percentage increase versus negative control
Description: The assessment of peroxides was performed as described by Figuero et al. with some modifications. Briefly, the different cell lines, at 10,000 cells per well, were incubated in a sterile 96-well glass-bottom plate from Celvis (München, Germany), which features a black polystyrene frame with high-quality #1.5 glass, suitable for fluorescent assessment. After one hour of incubation in the incubator at 37 °C, 5% CO2, 50 µL of 20 µM 2′,7′-dichlorofluorescein diacetate (DCFDA), Thermo Fisher, was added. The cells were incubated for an additional 30 min to allow for the internalization of the fluorophore. Then, 50 µL of the compounds diluted in media at a concentration 5-fold the IC50 calculated in cytotoxic studies, were added to each well, and the plates were read on an Enspire (PerkinElmer). Fluorescence was measured using the following parameters: excitation at 495 nm and emission at 530 nm. The temperature was maintained at 37 °C, and the readings were taken in bottom mode with three readings per well. Wells containing only RPMI, with 10% FCS, were included as background negative controls. Each experiment was repeated three times on separate occasions (n = 3). Cisplatin was used as a positive control, and the values were calculated based on cells without stimuli (negative control for each cell line). Hydrogen peroxide was used as a possible early marker for apoptosis as described by Miyazato et al..

CCRF-CEM = assay: Cytotoxic MTS assay, CCRF-CEM; assay type: cell-based; conditions: CCRF-CEM, human leukemia cell line, 72 h, median of five assays
Excerpt: as §1, §2

HCT116KO53 = assay: Cytotoxic MTS assay, HCT116 p53 knockout 2D; assay type: cell-based; conditions: HCT-116, human tumors 2D, 72 h, median of five assays
Excerpt: as §1, §2

RAJI = assay: Cytotoxic MTS assay, Raji; assay type: cell-based; conditions: Raji, human leukemia cell line, 72 h, median of five assays
Excerpt: as §1, §2

caspase 3 = assay: Caspase 3 activity in lysed HCT116 cells from 2D and spheroids; assay type: cell-based, human; conditions: 12 h; for Caspase 3 activity, spheroid culture: HCT116 parental spheroids, 25 µM (cisplatin 15 μM); for Caspase 3 activity, 2D culture: HCT116 parental, 25 µM
Description: (§3) The assay was designed to evaluate the impact of various compounds on caspase activity using a standardized quantity of cell protein lysates after 12 h of incubation. The parental line HCT116 served as the basis for these experiments. Three distinct caspases were examined employing the fluorescence assay kits from Calbiochem (San Diego, CA, USA), specifically a fluorometric caspase-8 assay kit and a fluorimetric caspase-3 assay kit. Additionally, the fluorometric kit from Abcam was utilized to assess caspase-9 activity. Due to the variations in protocols for each caspase, separate plates were prepared for each assay, encompassing both two-dimensional (2D) cell cultures and spheroids. The compound concentrations were established at 25 µM, and assays were conducted in quintuplicate following a 12-h incubation period. The cells were harvested from the plates using the standard trypsin-EDTA solution (Merck Sigma Aldrich, Saint Louis, MO, USA), washed, and counted before lysis, as described in each kit. Cell processing adhered to the guidelines provided by the respective companies, and protein concentration was calculated and standardized using the standard BCA assay. Fluorescent readings were captured using the Enspire apparatus (Perkin-Elmer, MA, USA). Positive controls utilized included staurosporine at a concentration of 5 μM and cisplatin at 15 μM. The kits provided their own standards; however, to normalize all the readings between cultures, types, and treatments, the results were expressed as a percentage relative to the positive control, staurosporine, in 2D culture. […] A total of three separate assays were conducted for each caspase.

caspase 9 = assay: Caspase 9 activity in lysed HCT116 cells from 2D and spheroids; assay type: cell-based, human; conditions: 12 h; for Caspase 9 activity, spheroid culture: HCT116 parental spheroids, 25 µM (cisplatin 15 μM); for Caspase 9 activity, 2D culture: HCT116 parental, 25 µM
Description: as §3

| SMILES | IC50 (U2OS) | IC50 (K562) | IC50 (BJ) | Peroxide formation (DCFDA) [1] | IC50 (CCRF-CEM) | IC50 (HCT116KO53) | IC50 (RAJI) | Caspase 3 activity, spheroid culture (caspase 3) | Caspase 3 activity, 2D culture (caspase 3) | Caspase 9 activity, spheroid culture (caspase 9) | Caspase 9 activity, 2D culture (caspase 9) |
| --- | --- | --- | --- | --- | --- | --- | --- | --- | --- | --- | --- |
| C=C1C(=O)C23CCC(C(=C)C)C(C)(CCC(=O)OC(C)=O)C2CCC1C3 (centres unmarked) [Compound 7, Caracasine-Acetic Anhydride] | 2.21 µM | 4.6 µM | 7.68 µM | most active | 0.45 µM | 1.91 µM | 2.21 µM | absence of caspase activity | significant changes | absence of caspase activity | – |
| C=C1C(=O)C23CCC(C(=C)C)C(C)(CCC(=O)OC)C2CCC1C3 (centres unmarked) [Compound 2, Caracasine] | 3.19 µM | 3.29 µM | 7.28 µM | least active | 0.86 µM | 1.91 µM | 1.45 µM | absence of caspase activity | significant changes | absence of caspase activity | – |
| C=C(C)C1CCC23CC(CCC2C1(C)CCC(=O)O)C(C)C3=O (single isomer, unassigned; ent-3) [Compound 5, Ent-3,4-Seco-15-Oxo-Kaur-4(19)-en-3-Oic Acid] | > 50 µM | > 50 µM | > 50 µM | did not induce peroxide formation | > 50 µM | > 50 µM | > 50 µM | – | did not induce caspase activity | – | did not induce caspase activity |
| C=C(C)C1CCC23CC(CCC2C1(C)CCC(=O)OC(C)=O)C(C)C3=O (single isomer, unassigned; ent-3) [Compound 6, Ent-3,4-Seco-15-Oxo-Kaur-4(19)-en-Acetic Anhydride] | > 50 µM | > 50 µM | > 50 µM | did not induce peroxide formation | > 50 µM | > 50 µM | > 50 µM | – | did not induce caspase activity | – | did not induce caspase activity |
